# In patent US9969775B2, “CGRP antagonist peptides” (Ferring B.V., priority 2015, dated 2018):
# Numbered stars: 1 amine (or outer) side, 2 acyl side, 3 side chain; on linkers, the order of the positions; unused ones are H or OH. Bridge positions count the residues as written; N and C are the ends. Square brackets hold non-standard residues; d marks the D form. Peptide text beside a SMILES is read from it. * marks the point of attachment. Phe(3-CH2NH2) = O=C([C@H](Cc1cccc(CN[*:3])c1)N[*:1])[*:2]; Phe(3-CONH2) = NC(=O)c1cccc(C[C@H](N)C(=O)O)c1; Phe(2-CONH2) = NC(=O)c1ccccc1C[C@H](N)C(=O)O; X5 = O=C([C@H](Cc1ccc(CO)cc1)N[*:1])[*:2]; Phe(3-CN) = N#Cc1cccc(C[C@H](N)C(=O)O)c1; Triazol3yl(1,2,4-5-NH2) = Nc1nc(*)n[nH]1; Picolinoyl(5-F) = O=C(c1ccc(F)cn1)*; Orn(iPr) = CC(C)NCCC[C@H](N)C(=O)O; Benzoyl(4-F) = O=C(c1ccc(F)cc1)*; Oxazole2carbonyl = O=C(c1ncco1)*; 3Pal = N[C@@H](Cc1cccnc1)C(=O)O; Picolinoyl = O=C(c1ccccn1)*; ΔPro = O=C(O)[C@@H]1C=CCN1; Orn = NCCC[C@H](N)C(=O)O; X2 = Cc1n[nH]c(C(=O)*)n1; Dab = NCC[C@H](N)C(=O)O; X1 = O=C(c1ncccc1F)*; X6 = O=C(c1ccncn1)*
# Assays:
# [1] = biological target: T1, hAM2 receptor (CALCRL:RAMP3) (Homo sapiens, UniProt O60896+Q16602); assay: AM2 receptor antagonist activity measured by cAMP assay (HTRF); assay type: cell-based; details: for Emax: % MPE: percent of the maximal possible effect, read-out: hAM2-R Efficacy Antag (%) Ave; for Emax / IC50: agonist human adrenomedullin; for IC50: GeneBLAzer CALCRL:RAMP3-CRE-bla Freestyle 293F cells, read-out: hAM2-R IC50 Ave; for selectivity ratio CGRP/AM2: selectivity ratio for hCGRP over hAM2, calculated from the IC50 values
# T1 construct: expressed in transfected cells; host or cells: GeneBLAzer CALCRL:RAMP3-CRE-bla Freestyle 293F
# [2] = biological target: T2, hCGRP receptor (CALCRL:RAMP1) (Homo sapiens, UniProt O60894+Q16602); assay: CGRP receptor antagonist activity measured by cAMP assay (HTRF); assay type: cell-based; details: agonist human α-CGRP; for Emax: % MPE: percent of the maximal possible effect, read-out: hCGRP-R Efficacy Antag (%) Ave; for IC50: GeneBLAzer CALCRL:RAMP1-CRE-bla Freestyle 293F cells, 30 minutes, read-out: hCGRP-R IC50 Ave
# T2 construct: host or cells: GeneBLAzer CALCRL:RAMP1-CRE-bla Freestyle 293F
# Experimental: Example 6: CGRP Receptor Antagonist Activity Measured by cAMP Assay
# CGRP receptor agonists increase intracellular cyclic adenosine mono-phosphate (cAMP). CGRP receptor antagonists can reduce the agonist effect. Antagonist activity was assessed by measurement of cyclic adenosine mono-phosphate (cAMP) using cell line stably expressing the hCGRP receptor (GeneBLAzer® CALCRL:RAMP1-CRE-bla Freestyle™ 293F, Invitrogen). hCGRP receptor expressing cells were maintained in DMEM high-glucose with GlutaMAX™ containing 10% (v/v) FBS, 0.1 mM NEAA, 25 mM HEPES, 5 ug/ml Blasticidin, 100 ug/ml Hygromycin, and 400 ug/ml Geneticin at 37° C. under 5% CO2 in a humidified atmosphere. For cAMP measurement, cells were washed once with 5 ml 1×PBS, cell maintenance media was replaced with compound buffer ((CB): DMEM containing 0.1% BSA and 0.5 mM IBMX), and flasks were incubated for 1 hour at 37° C. under 5% CO2 in a humidified atmosphere. Cells were removed from culture flasks using non-enzymatic cell dissociation buffer and harvested in CB. The reaction was performed in 384 well white small volume plates (Greiner) at a density of 10,000 cells/well. Cells were exposed to varying concentrations of antagonist compounds for 30 minutes in the presence of a fixed concentration of agonist (human α-CGRP). cAMP levels were measured using an HTRF (homogeneous time resolved fluorescence)-based competitive cAMP immunoassay (cAMP Dynamic 2 Kit, Cisbio), according to the manufacturer's instructions. […] Reported parameters include antagonist potency IC50 (the concentration causing half-maximal inhibition of the agonist response for antagonist compounds) and efficacy (% MPE: percent of the maximal possible effect).
# T2 sequence (Q16602 23-461): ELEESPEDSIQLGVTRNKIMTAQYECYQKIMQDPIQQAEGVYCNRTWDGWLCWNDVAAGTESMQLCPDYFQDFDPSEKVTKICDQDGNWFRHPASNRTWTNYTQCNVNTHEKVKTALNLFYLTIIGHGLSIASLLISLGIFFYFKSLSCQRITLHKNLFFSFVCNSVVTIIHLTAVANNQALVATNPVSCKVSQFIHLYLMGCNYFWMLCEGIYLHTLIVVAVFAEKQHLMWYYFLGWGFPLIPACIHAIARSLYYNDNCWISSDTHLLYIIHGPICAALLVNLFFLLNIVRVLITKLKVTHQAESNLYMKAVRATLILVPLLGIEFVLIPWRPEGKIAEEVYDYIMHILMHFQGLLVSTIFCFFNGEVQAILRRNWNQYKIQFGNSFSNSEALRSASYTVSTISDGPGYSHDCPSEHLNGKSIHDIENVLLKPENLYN
# T2 sequence (O60894 27-148): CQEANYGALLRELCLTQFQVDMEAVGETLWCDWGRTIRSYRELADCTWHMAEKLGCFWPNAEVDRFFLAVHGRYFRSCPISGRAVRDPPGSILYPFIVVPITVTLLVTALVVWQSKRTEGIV
# T1 sequence (Q16602 23-461): as the sequence (Q16602 23-461) above
# T1 sequence (O60896 24-148): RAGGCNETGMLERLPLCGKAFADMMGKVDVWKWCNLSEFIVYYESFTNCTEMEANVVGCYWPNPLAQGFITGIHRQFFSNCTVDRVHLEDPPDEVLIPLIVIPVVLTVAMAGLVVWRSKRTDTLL
Emax [1],Emax [2],IC50 [1],selectivity ratio CGRP/AM2 [1],IC50 [2],SMILES
97%,100%,–,–,–,"CC(C)[C@@H]1NC(=O)[C@H](CC(=O)O)NC(=O)[C@H](CCNc2nc(N)n[nH]2)NC(=O)[C@@H](NC(=O)[C@H](Cc2ccccc2C(N)=O)NC(=O)[C@H](NC(=O)c2ncco2)C(C)C)CSSC[C@@H](C(=O)N[C@@H](Cc2cccnc2)C(N)=O)NC(=O)[C@H](Cc2cccnc2)NC(=O)[C@@H]2CCCN2C(=O)CNC1=O [Compound 42, Oxazole-2-carbonyl-D-Val-Phe(2-Cbm)-c(Cys-Dab(Atz)-Asp-Val-Gly-Pro-3Pal-Cys)-3Pal-NH2] (Oxazole2carbonyl-[dV][Phe(2-CONH2)]C[Dab](Triazol3yl(1,2,4-5-NH2))DVGP[3Pal]C[3Pal]-NH2; disulfide 3-10)"
99%,100%,61 nM,498,0.12 nM,"CC(C)[C@@H]1NC(=O)[C@H](CC(=O)O)NC(=O)[C@H](CCCNC(=N)N)NC(=O)[C@@H](NC(=O)[C@H](Cc2ccccc2C(N)=O)NC(=O)[C@H](NC(=O)c2ncccc2F)C(C)C)CSSC[C@@H](C(=O)N[C@@H](Cc2cccnc2)C(N)=O)NC(=O)[C@H](Cc2cccc(CN)c2)NC(=O)[C@@H]2C=CCN2C(=O)CNC1=O [Compound 32, Picolinoyl(3-F)-D-Val-Phe(2-Cbm)-c(Cys-Arg-Asp-Val-Gly-Dhp-Phe(3-CH2NH2)-Cys)-3Pal-NH2] (X1-[dV][Phe(2-CONH2)]CRDVG[ΔPro][Phe(3-CH2NH2)]C[3Pal]-NH2; disulfide 3-10)"
99%,101%,103 nM,1094,0.09 nM,"CC(C)NCCC[C@@H]1NC(=O)[C@@H](NC(=O)[C@H](Cc2ccc(O)cc2)NC(=O)[C@H](NC(=O)c2ncco2)C(C)C)CSSC[C@@H](C(=O)N[C@@H](Cc2cccnc2)C(N)=O)NC(=O)[C@H](Cc2cccc(C(N)=O)c2)NC(=O)[C@@H]2C=CCN2C(=O)CNC(=O)[C@H](C(C)C)NC(=O)[C@H](CC(=O)O)NC1=O [Compound 67, Oxazole-2-carbonyl-D-Val-Tyr-c(Cys-Orn(iPr)-Asp-Val-Gly-Dhp-Phe(3-Cbm)-Cys)-3Pal-NH2] (Oxazole2carbonyl-[dV]YC[Orn(iPr)]DVG[ΔPro][Phe(3-CONH2)]C[3Pal]-NH2; disulfide 3-10)"
96%,100%,402 nM,5610,0.07 nM,Cc1n[nH]c(C(=O)N[C@@H](C(=O)N[C@@H](Cc2ccc(O)cc2)C(=O)N[C@H]2CSSC[C@@H](C(=O)N[C@@H](Cc3cccnc3)C(N)=O)NC(=O)[C@H](Cc3ccccc3)NC(=O)[C@@H]3CCCN3C(=O)CNC(=O)[C@H](C(C)C)NC(=O)[C@H](CC(=O)O)NC(=O)[C@H](CCCNC(=N)N)NC2=O)C(C)C)n1 [Compound 48] (X2-[dV]YCRDVGPFC[3Pal]-NH2; disulfide 3-10)
100%,100%,20 nM,167,0.12 nM,"CC(C)NCCC[C@@H]1NC(=O)[C@@H](NC(=O)[C@H](Cc2ccc(O)cc2)NC(=O)[C@H](NC(=O)c2ccc(F)cn2)C(C)C)CSSC[C@@H](C(=O)N[C@@H](Cc2cccnc2)C(N)=O)NC(=O)[C@H](Cc2ccccc2)NC(=O)[C@@H]2CCCN2C(=O)CNC(=O)[C@H](C(C)C)NC(=O)[C@H](CC(=O)O)NC1=O [Compound 14, Picolinoyl(5-F)-D-Val-Tyr-c(Cys-Orn(iPr)-Asp-Val-Gly-Pro-Phe-Cys)-3Pal-NH2] ({Picolinoyl(5-F)}-[dV]YC[Orn(iPr)]DVGPFC[3Pal]-NH2; disulfide 3-10)"
100%,100%,78 nM,1071,0.07 nM,"CC(C)[C@@H]1NC(=O)[C@H](CC(=O)O)NC(=O)[C@H](CCCN)NC(=O)[C@@H](NC(=O)[C@H](Cc2ccc(O)cc2)NC(=O)[C@H](NC(=O)c2ccccn2)C(C)C)CSSC[C@@H](C(=O)N[C@@H](Cc2cccnc2)C(N)=O)NC(=O)[C@H](Cc2ccc(CO)cc2)NC(=O)[C@@H]2CCCN2C(=O)CNC1=O [Compound 25, Picolinoyl-D-Val-Tyr-c(Cys-Orn-Asp-Val-Gly-Pro-Phe(4-CH2OH)-Cys)-3Pal-NH2] (Picolinoyl-[dV]YC[Orn]DVGP[X5]C[3Pal]-NH2; disulfide 3-10)"
101%,100%,33 nM,175,0.19 nM,"CC(C)[C@@H]1NC(=O)[C@H](CC(=O)O)NC(=O)[C@H](CCCNC(=N)N)NC(=O)[C@@H](NC(=O)[C@H](Cc2cccc(CN)c2)NC(=O)[C@H](NC(=O)c2ccc(F)cc2)C(C)C)CSSC[C@@H](C(=O)N[C@@H](Cc2cccnc2)C(N)=O)NC(=O)[C@H](Cc2ccc(O)cc2)NC(=O)[C@@H]2C=CCN2C(=O)CNC1=O [Compound 22, Bz(4-F)-D-Val-Phe(3-CH2NH2)-c(Cys-Arg-Asp-Val-Gly-Dhp-Tyr-Cys)-3Pal-NH2] ({Benzoyl(4-F)}-[dV][Phe(3-CH2NH2)]CRDVG[ΔPro]YC[3Pal]-NH2; disulfide 3-10)"
99%,100%,26 nM,192,0.13 nM,"CC(C)[C@@H]1NC(=O)[C@H](CC(=O)O)NC(=O)[C@H](CCCNC(=N)N)NC(=O)[C@@H](NC(=O)[C@H](Cc2ccc(O)cc2)NC(=O)[C@H](NC(=O)c2ccc(F)cc2)C(C)C)CSSC[C@@H](C(=O)N[C@@H](Cc2cccnc2)C(N)=O)NC(=O)[C@H](Cc2cccc(CN)c2)NC(=O)[C@@H]2CCCN2C(=O)CNC1=O [Compound 5, Bz(4-F)-D-Val-Tyr-c(Cys-Arg-Asp-Val-Gly-Pro-Phe(3-CH2NH2)-Cys)-3Pal-NH2] ({Benzoyl(4-F)}-[dV]YCRDVGP[Phe(3-CH2NH2)]C[3Pal]-NH2; disulfide 3-10)"
100%,100%,107 nM,727,0.15 nM,"CC(C)NCCC[C@@H]1NC(=O)[C@@H](NC(=O)[C@H](Cc2ccc(O)cc2)NC(=O)[C@H](NC(=O)c2ncco2)C(C)C)CSSC[C@@H](C(=O)N[C@@H](Cc2cccnc2)C(N)=O)NC(=O)[C@H](Cc2ccc(CO)cc2)NC(=O)[C@@H]2C=CCN2C(=O)CNC(=O)[C@H](C(C)C)NC(=O)[C@H](CC(=O)O)NC1=O [Compound 70, Oxazole-2-carbonyl-D-Val-Tyr-c(Cys-Orn(iPr)-Asp-Val-Gly-Dhp-Phe(4-CH2OH)-Cys)-3Pal-NH2] (Oxazole2carbonyl-[dV]YC[Orn(iPr)]DVG[ΔPro][X5]C[3Pal]-NH2; disulfide 3-10)"
100%,100%,46 nM,390,0.12 nM,"CC(C)[C@@H]1NC(=O)[C@H](CC(=O)O)NC(=O)[C@H](CCCNC(=N)N)NC(=O)[C@@H](NC(=O)[C@H](Cc2ccccc2C(N)=O)NC(=O)[C@H](NC(=O)c2ccncn2)C(C)C)CSSC[C@@H](C(=O)N[C@@H](Cc2cccnc2)C(N)=O)NC(=O)[C@H](Cc2cccc(CN)c2)NC(=O)[C@@H]2C=CCN2C(=O)CNC1=O [Compound 31, Pyrimidine-4-carbonyl-D-Val-Phe(2-Cbm)-c(Cys-Arg-Asp-Val-Gly-Dhp-Phe(3-CH2NH2)-Cys)-3Pal-NH2] (X6-[dV][Phe(2-CONH2)]CRDVG[ΔPro][Phe(3-CH2NH2)]C[3Pal]-NH2; disulfide 3-10)"
99%,100%,33 nM,258,0.13 nM,"CC(C)[C@@H]1NC(=O)[C@H](CC(=O)O)NC(=O)[C@H](CCCNC(=N)N)NC(=O)[C@@H](NC(=O)[C@H](Cc2ccc(O)cc2)NC(=O)[C@H](NC(=O)c2ccc(F)cc2)C(C)C)CSSC[C@@H](C(=O)N[C@@H](Cc2cccnc2)C(N)=O)NC(=O)[C@H](Cc2cccc(C#N)c2)NC(=O)[C@@H]2CCCN2C(=O)CNC1=O [Compound 21, Bz(4-F)-D-Val-Tyr-c(Cys-Arg-Asp-Val-Gly-Pro-Phe(3-CN)-Cys)-3Pal-NH2] ({Benzoyl(4-F)}-[dV]YCRDVGP[Phe(3-CN)]C[3Pal]-NH2; disulfide 3-10)"
99%,100%,58 nM,610,0.1 nM,CC(C)[C@@H]1NC(=O)[C@H](CC(=O)O)NC(=O)[C@H](CCCNC(=N)N)NC(=O)[C@@H](NC(=O)[C@H](Cc2ccccc2C(N)=O)NC(=O)[C@H](NC(=O)c2ccc(F)cc2)C(C)C)CSSC[C@@H](C(=O)N[C@@H](Cc2cccnc2)C(N)=O)NC(=O)[C@H](Cc2ccccc2)NC(=O)[C@@H]2CCCN2C(=O)CNC1=O [Compound 15] ({Benzoyl(4-F)}-[dV][Phe(2-CONH2)]CRDVGPFC[3Pal]-NH2; disulfide 3-10)
